# Measured values as given in ChEMBL document CHEMBL6074649, “An insight into recent developments in imidazole based heterocyclic compounds as anticancer agents: Synthesis, SARs, and mechanism of actions” (Eur J Med Chem, 2024).
# Columns and labels:
# A549 [1] = assay: Antiproliferative activity against A549 cells assessed as reduction in cell growth by MTT assay; format: functional, cell-based; conditions: Homo sapiens
# NCI-H1299 = assay: Antiproliferative activity against human NCI-H1299 cells assessed as reduction in cell growth by MTT assay; format: functional, cell-based
# [2] = Antiproliferative activity against MRC5 cells assessed as reduction in cell growth by MTT assay; format: toxicity, cell-based; conditions: human
# MCF7 [3] = assay: Antiproliferative activity against MCF7 cells assessed as reduction in cell growth by MTT assay; format: functional, cell-based; conditions: Homo sapiens
# NCI-H460 = assay: Antiproliferative activity against human NCI-H460 cells assessed as reduction in cell growth by MTT assay; format: functional, cell-based
# HT-29 [4] = assay: Antiproliferative activity against human HT-29 cells assessed as reduction in cell growth by MTT assay; format: functional, cell-based
# PANC-1 = assay: Antiproliferative activity against human PANC-1 cells by MTT assay; format: functional, cell-based
# MCF7 [5] = assay: Antiproliferative activity against human MCF7 cells assessed as reduction in cell growth by MTT assay; format: functional, cell-based
# A549 [6] = assay: Antiproliferative activity against human A549 cells assessed as reduction in cell growth by MTT assay; format: functional, cell-based
# [7] = Cytotoxicity against human MCF-10A cells measured after 24 hrs by MTT assay; format: toxicity, cell-based
# MCF7 [8] = assay: Cytotoxicity against human MCF7 cells after 24 hrs by MTT assay; format: functional, cell-based; conditions: MCF7, 24 h
# HepG2 [9] = assay: Cytotoxicity against human HepG2 cells after 24 hrs by MTT assay; format: functional, cell-based; conditions: HepG2, 24 h
# HCT-116 [10] = assay: Cytotoxicity against human HCT-116 cells after 24 hrs by MTT assay; format: functional, cell-based; conditions: HCT-116, 24 h
# HepG2 [11] = assay: Cytotoxicity against human HepG2 cells assessed as reduction in cell growth incubated for 24 hrs by SRB assay; format: functional, cell-based; conditions: HepG2, 24 h
# DU-145 = assay: Anticancer activity against human DU-145 cells; format: functional, cell-based
# HeLa [12] = assay: Cytotoxicity against human HeLa cells assessed as reduction in cell growth incubated for 24 hrs by MTT assay; format: functional, cell-based
# HCT-116 [13] = assay: Cytotoxicity against human HCT-116 cells assessed as reduction in cell growth incubated for 24 hrs by MTT assay; format: functional, cell-based; conditions: HCT-116, 24 h
# HCT-15 = assay: Antiproliferative activity against human HCT-15 cells assessed as inhibition of cell growth at 0.1 uM measured for 48 hrs by MTT assay relative to control; format: functional
# HT-29 [14] = assay: Antiproliferative activity against human HT-29 cells assessed as inhibition of cell growth at 0.1 uM measured for 48 hrs by MTT assay relative to control; format: functional; conditions: HT-29, 48 h, values are per cent of control
# HeLa [15] = assay: Antiproliferative activity against human HeLa cells assessed as inhibition of cell growth at 0.1 uM measured for 48 hrs by MTT assay relative to control; format: functional; conditions: values are per cent of control
# HepG2 [16] = assay: Anticancer activity against human HepG2 cells; format: functional, cell-based
# PC-3 = assay: Anticancer activity against human PC-3 cells; format: functional, cell-based
# HepG2 [17] = assay: Antiproliferative activity against human HepG2 cells; format: functional, cell-based
# Caco-2 = assay: Cytotoxicity against human Caco-2 cells assessed as reduction in cell growth incubated for 24 hrs by MTT assay; format: functional, cell-based; conditions: Caco-2, 24 h
# A549 [18] = assay: Antiproliferative activity against human A549 cells assessed as inhibition of cell growth at 0.1 uM measured for 48 hrs by MTT assay relative to control; format: functional
# MDA-MB-231 = assay: Antiproliferative activity against human MDA-MB-231 cells assessed as inhibition of cell growth at 0.1 uM measured for 48 hrs by MTT assay relative to control; format: functional
# MCF7 [19] = assay: Anticancer activity against human MCF7 cells; format: functional, cell-based
# A549 [20] = assay: Cytotoxicity against human A549 cells assessed as reduction in cell growth; format: functional, cell-based
# BXPC-3 = assay: Antiproliferative activity against human BXPC-3 assessed as reduction in cell growth; format: functional, cell-based
# HL-60 = assay: Antiproliferative activity against human HL-60 cells assessed as reduction in cell viability incubated for 72 hrs by MTT assay; format: functional, cell-based; conditions: HL-60, 72 h
# HT-29 [21] = assay: Antiproliferative activity against human HT-29 cells assessed as reduction in cell viability incubated for 72 hrs by MTT assay; format: functional, cell-based; conditions: HT-29, 72 h
# A549 [22] = assay: Antiproliferative activity against human A549 cells assessed as reduction in cell viability incubated for 72 hrs by MTT assay; format: functional, cell-based; conditions: A549, 72 h
# Jurkat = assay: Antiproliferative activity against human Jurkat cells assessed as reduction in cell viability incubated for 72 hrs by MTT assay; format: functional, cell-based
# RS4-11 = assay: Antiproliferative activity against human RS4-11 cells assessed as reduction in cell viability incubated for 72 hrs by MTT assay; format: functional, cell-based; conditions: RS4-11, 72 h
# Tubulin = assay: Inhibition of tubulin polymerization (unknown origin); format: protein-complex assay, Homo sapiens
# HeLa [23] = assay: Antiproliferative activity against human HeLa cells assessed as reduction in cell viability incubated for 72 hrs by MTT assay; format: functional, cell-based
# MCF7 [24] = assay: Antiproliferative activity against human MCF7 cells assessed as reduction in cell viability incubated for 72 hrs by MTT assay; format: functional, cell-based; conditions: MCF7, 72 h
compound,measurement,setting,value
CN(C)CCCOc1ccc(-c2nc(-c3ccc([N+](=O)[O-])o3)[nH]c2-c2ccc(OCCCN(C)C)cc2)cc1,IC50,A549 [1],6.71 µM
same,IC50,NCI-H1299,< 0.1 µM
same,IC50,[2],7.1 µM
same,IC50,MCF7 [3],6.75 µM
same,IC50,NCI-H460,6.95 µM
COc1ccccc1-c1nc(-c2ccccc2)c(-c2ccccc2)n1-c1ccc(S(N)(=O)=O)cc1,IC50,HT-29 [4],2.4 µM
same,IC50,PANC-1,2.2 µM
same,IC50,MCF7 [5],2.1 µM
same,IC50,A549 [6],2.4 µM
CC(=O)O[C@@]12CO[C@@H]1C[C@H](O)[C@@]1(C)C(=O)[C@H](O)C3=C(C)[C@@H](OC(=O)[C@H](O)[C@@H](NC(=O)OC(C)(C)C)c4ccccc4)C[C@@](O)([C@@H](OC(=O)c4ccccc4)[C@H]21)C3(C)C [DOCETAXEL ANHYDROUS],IC50 at 24 h,[7],33.2 µM
same,IC50,MCF7 [8],11.1 µM
same,IC50,HepG2 [9],8.13 µM
same,IC50,HCT-116 [10],14 µM
COc1cccc2c1C(=O)c1c(O)c3c(c(O)c1C2=O)C[C@@](O)(C(=O)CO)C[C@@H]3O[C@H]1C[C@H](N)[C@H](O)[C@H](C)O1 [DOXORUBICIN],IC50,HepG2 [11],0.42 µg/mL
same,IC50,DU-145,4.6 µM
same,IC50,HT-29 [4],1 µM
same,IC50,HeLa [12],1.25 µM
same,IC50,HCT-116 [13],5.64 µM
same,IC50,PANC-1,1.4 µM
same,inhibition at 0.1 µM,HCT-15,94%
same,"viability, % of control at 0.1 µM",HT-29 [14],93%
same,"viability, % of control at 0.1 µM",HeLa [15],90%
same,IC50,HepG2 [16],0.62 µM
same,IC50,PC-3,2.3 µM
same,IC50,HepG2 [17],0.86 µM
same,IC50,Caco-2,5.17 µM
same,inhibition at 0.1 µM,A549 [18],89%
same,inhibition at 0.1 µM,MDA-MB-231,83%
CCOC(=O)N1CCN(c2c([N+](=O)[O-])nc(CC)n2CC)CC1,IC50,DU-145,42.2 µM
same,IC50,MCF7 [19],29.6 µM
same,IC50,HepG2 [16],5.6 µM
same,IC50,PC-3,49.6 µM
CN(C)CCCOc1ccc(-c2nc(-c3ccc(Br)o3)[nH]c2-c2ccc(OCCCN(C)C)cc2)cc1,IC50,A549 [1],5.82 µM
same,IC50,NCI-H1299,< 0.1 µM
same,IC50,[2],8.42 µM
same,IC50,MCF7 [3],6.91 µM
same,IC50,NCI-H460,4.16 µM
COc1ccc2cc([C@H](C)C3=NC(Cc4ccccc4)C(=O)N3/N=C/c3ccc(N(C)C)cc3)ccc2c1 (stereo partly drawn),IC50,A549 [20],9.4 µM
same,IC50,BXPC-3,18.3 µM
O=C(O)c1ccc(C(=O)NCn2cc(CSc3nc(-c4ccccc4)c(-c4ccccc4)n3-c3ccccc3)nn2)cc1,IC50,HeLa [12],6.87 µM
same,IC50,HCT-116 [13],16.8 µM
same,IC50,Caco-2,4.67 µM
NS(=O)(=O)c1ccc(-n2c(-c3ccccc3Br)nc(-c3ccccc3)c2-c2ccccc2)cc1,IC50,HT-29 [4],3.1 µM
same,IC50,PANC-1,2.5 µM
same,IC50,MCF7 [5],2.7 µM
same,IC50,A549 [6],2.8 µM
CCOc1ccc(-c2nccn2-c2cc(OC)c(OC)c(OC)c2)cc1Cl,IC50,HL-60,0.0018 µM
same,IC50,HT-29 [21],0.0004 µM
same,IC50,A549 [22],0.00057 µM
same,IC50,Jurkat,0.0009 µM
same,IC50,RS4-11,0.0012 µM
same,IC50,Tubulin,0.87 µM
same,IC50,HeLa [23],0.0038 µM
same,IC50,MCF7 [24],0.0007 µM
COc1ccc(-c2c[nH]c(=S)n2/N=C/c2ccccc2O)cc1,IC50 at 24 h,[7],27.8 µM
same,IC50,MCF7 [8],1.07 µM
same,IC50,HepG2 [9],1.3 µM
same,IC50,HCT-116 [10],3.99 µM
